Data: PubChem BioAssay (NCI)
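96-well plates; 48 h exposure; 5 concentrations. Endpoints by linear interpolation between flanking doses. Not reached: highest tested concentration assigned. At the TGI there is no net growth.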

Tests used:
Assay in all cases: NCI tumour cell line growth inhibition, 48 h
786-0 renal = tested on: 786-0 renal
A498 renal = tested on: A498 renal
A549 NSCLC = tested on: A549 NSCLC
ACHN renal = tested on: ACHN renal
BT-549 breast = tested on: BT-549 breast
CAKI-1 renal = tested on: CAKI-1 renal
CCRF-CEM leukemia = tested on: CCRF-CEM leukemia
COLO 205 colon = tested on: COLO 205 colon
DU-145 prostate = tested on: DU-145 prostate
EKVX NSCLC = tested on: EKVX NSCLC
HCC-2998 colon = tested on: HCC-2998 colon
HCT-116 colon = tested on: HCT-116 colon
HCT-15 colon = tested on: HCT-15 colon
HL-60(TB) leukemia = tested on: HL-60(TB) leukemia
HOP-62 NSCLC = tested on: HOP-62 NSCLC
HOP-92 NSCLC = tested on: HOP-92 NSCLC
HS 578T breast = tested on: HS 578T breast
HT29 colon = tested on: HT29 colon
IGROV1 ovarian = tested on: IGROV1 ovarian
K-562 leukemia = tested on: K-562 leukemia
KM12 colon = tested on: KM12 colon
LOX IMVI melanoma = tested on: LOX IMVI melanoma
M14 melanoma = tested on: M14 melanoma
MALME-3M melanoma = tested on: MALME-3M melanoma
MCF7 breast = tested on: MCF7 breast
MDA-MB-231 breast = tested on: MDA-MB-231 breast
MDA-MB-435 = tested on: MDA-MB-435
MDA-N = tested on: MDA-N
MOLT-4 leukemia = tested on: MOLT-4 leukemia
NCI-H226 lung = tested on: NCI-H226 lung
NCI-H23 lung = tested on: NCI-H23 lung
NCI-H460 lung = tested on: NCI-H460 lung
NCI-H522 lung = tested on: NCI-H522 lung
NCI/ADR-RES ovarian = tested on: NCI/ADR-RES ovarian
OVCAR-3 ovarian = tested on: OVCAR-3 ovarian
OVCAR-4 ovarian = tested on: OVCAR-4 ovarian
OVCAR-5 ovarian = tested on: OVCAR-5 ovarian
OVCAR-8 ovarian = tested on: OVCAR-8 ovarian
PC-3 prostate = tested on: PC-3 prostate
RPMI-8226 leukemia = tested on: RPMI-8226 leukemia
RXF 393 renal = tested on: RXF 393 renal
SF-268 CNS = tested on: SF-268 CNS
SF-295 CNS = tested on: SF-295 CNS
SF-539 CNS = tested on: SF-539 CNS
SK-MEL-2 melanoma = tested on: SK-MEL-2 melanoma
SK-MEL-28 melanoma = tested on: SK-MEL-28 melanoma
SK-MEL-5 melanoma = tested on: SK-MEL-5 melanoma
SK-OV-3 ovarian = tested on: SK-OV-3 ovarian
SN12C renal = tested on: SN12C renal
SNB-19 CNS = tested on: SNB-19 CNS
SNB-75 CNS = tested on: SNB-75 CNS
SR leukemia = tested on: SR leukemia
SW-620 colon = tested on: SW-620 colon
T-47D breast = tested on: T-47D breast
TK-10 renal = tested on: TK-10 renal
U251 CNS = tested on: U251 CNS
UACC-257 melanoma = tested on: UACC-257 melanoma
UACC-62 melanoma = tested on: UACC-62 melanoma
UO-31 renal = tested on: UO-31 renal

**Q.** With `COc1ccc(SCc2cc(OC)c(OC)c(OC)c2)cc1OC` as the compound, how does the TGI (786-0 renal) read?
**A.** The TGI was > 100 µM.

**Q.** What about the TGI (A498 renal) of the same compound?
**A.** The TGI was > 86.4 µM.

**Q.** What about the TGI (A549 NSCLC) of the same compound?
**A.** The TGI was > 100 µM.

**Q.** What about the TGI (ACHN renal) of the same compound?
**A.** The TGI was > 100 µM.

**Q.** What about the TGI (BT-549 breast) of the same compound?
**A.** Its TGI is > 100 µM.

**Q.** And the TGI (CAKI-1 renal)?
**A.** Its TGI is > 100 µM.

**Q.** What about the TGI (CCRF-CEM leukemia) of the same compound?
**A.** The TGI was > 100 µM.

**Q.** And the TGI (COLO 205 colon)?
**A.** The TGI was > 100 µM.

**Q.** What about the TGI (DU-145 prostate) of the same compound?
**A.** The TGI was > 100 µM.

**Q.** And the TGI (EKVX NSCLC)?
**A.** The TGI was > 100 µM.

**Q.** What about the TGI (HCC-2998 colon) of the same compound?
**A.** The TGI was > 100 µM.

**Q.** And the TGI (HCT-116 colon)?
**A.** Its TGI is > 100 µM.

**Q.** What about the TGI (HCT-15 colon) of the same compound?
**A.** The TGI was > 100 µM.

**Q.** What about the TGI (HL-60(TB) leukemia) of the same compound?
**A.** Its TGI is > 100 µM.

**Q.** And the TGI (HOP-62 NSCLC)?
**A.** The TGI was > 100 µM.

**Q.** And the TGI (HOP-92 NSCLC)?
**A.** The TGI was 83.3 µM.

**Q.** And the TGI (HS 578T breast)?
**A.** The TGI was > 100 µM.

**Q.** And the TGI (HT29 colon)?
**A.** Its TGI is > 100 µM.

**Q.** And the TGI (IGROV1 ovarian)?
**A.** Its TGI is > 100 µM.

**Q.** What about the TGI (K-562 leukemia) of the same compound?
**A.** Its TGI is > 100 µM.

**Q.** And the TGI (KM12 colon)?
**A.** The TGI was > 100 µM.

**Q.** And the TGI (LOX IMVI melanoma)?
**A.** The TGI was > 100 µM.

**Q.** And the TGI (M14 melanoma)?
**A.** The TGI was > 100 µM.

**Q.** What about the TGI (MALME-3M melanoma) of the same compound?
**A.** The TGI was > 100 µM.

**Q.** And the TGI (MCF7 breast)?
**A.** Its TGI is > 100 µM.

**Q.** What about the TGI (MDA-MB-231 breast) of the same compound?
**A.** The TGI was > 100 µM.

**Q.** What about the TGI (MDA-MB-435) of the same compound?
**A.** Its TGI is 63.1 µM.

**Q.** And the TGI (MDA-N)?
**A.** The TGI was > 100 µM.

**Q.** And the TGI (MOLT-4 leukemia)?
**A.** The TGI was > 100 µM.

**Q.** What about the TGI (NCI-H226 lung) of the same compound?
**A.** The TGI was > 100 µM.

**Q.** And the TGI (NCI-H23 lung)?
**A.** The TGI was > 100 µM.

**Q.** What about the TGI (NCI-H460 lung) of the same compound?
**A.** Its TGI is > 100 µM.

**Q.** What about the TGI (NCI-H522 lung) of the same compound?
**A.** The TGI was > 100 µM.

**Q.** What about the TGI (NCI/ADR-RES ovarian) of the same compound?
**A.** Its TGI is > 100 µM.

**Q.** What about the TGI (OVCAR-3 ovarian) of the same compound?
**A.** Its TGI is > 100 µM.

**Q.** What about the TGI (OVCAR-4 ovarian) of the same compound?
**A.** The TGI was > 100 µM.

**Q.** What about the TGI (OVCAR-5 ovarian) of the same compound?
**A.** Its TGI is > 100 µM.

**Q.** What about the TGI (OVCAR-8 ovarian) of the same compound?
**A.** The TGI was > 100 µM.

**Q.** What about the TGI (PC-3 prostate) of the same compound?
**A.** The TGI was > 100 µM.

**Q.** And the TGI (RPMI-8226 leukemia)?
**A.** Its TGI is > 100 µM.

**Q.** And the TGI (RXF 393 renal)?
**A.** Its TGI is > 100 µM.

**Q.** What about the TGI (SF-268 CNS) of the same compound?
**A.** Its TGI is > 100 µM.

**Q.** What about the TGI (SF-295 CNS) of the same compound?
**A.** Its TGI is > 100 µM.

**Q.** And the TGI (SF-539 CNS)?
**A.** Its TGI is > 100 µM.

**Q.** And the TGI (SK-MEL-2 melanoma)?
**A.** Its TGI is > 69.1 µM.

**Q.** What about the TGI (SK-MEL-28 melanoma) of the same compound?
**A.** The TGI was > 100 µM.

**Q.** And the TGI (SK-MEL-5 melanoma)?
**A.** Its TGI is 34.7 µM.

**Q.** What about the TGI (SK-OV-3 ovarian) of the same compound?
**A.** Its TGI is > 90.1 µM.

**Q.** And the TGI (SN12C renal)?
**A.** The TGI was > 100 µM.

**Q.** And the TGI (SNB-19 CNS)?
**A.** The TGI was > 100 µM.

**Q.** And the TGI (SNB-75 CNS)?
**A.** The TGI was > 70.5 µM.

**Q.** What about the TGI (SR leukemia) of the same compound?
**A.** The TGI was > 100 µM.

**Q.** What about the TGI (SW-620 colon) of the same compound?
**A.** Its TGI is > 100 µM.

**Q.** What about the TGI (T-47D breast) of the same compound?
**A.** The TGI was > 31.6 µM.

**Q.** What about the TGI (TK-10 renal) of the same compound?
**A.** Its TGI is > 100 µM.

**Q.** And the TGI (U251 CNS)?
**A.** The TGI was > 100 µM.

**Q.** What about the TGI (UACC-257 melanoma) of the same compound?
**A.** The TGI was > 100 µM.

**Q.** What about the TGI (UACC-62 melanoma) of the same compound?
**A.** The TGI was > 100 µM.

**Q.** What about the TGI (UO-31 renal) of the same compound?
**A.** Its TGI is > 100 µM.
